According to PMC12040169 (PLOS Biology, 2025):

assay: in vitro; conditions: human, hela cells, % viability

SMILES	viability at 28.5 h, 10 µM [%]
Cc1ccc(S(=O)(=O)N2CC[C@@H]3C[C@H](NC(=O)C4CC4C)[C@@H]32)cc1 (stereo partly shown) [CBK284968]	90
O=C1CC2(CCC3C(C(=O)N4CCCC4)C32)Oc2ccccc21 (stereo not shown) [CBK284969]	104
Cn1cc(C2CCCCCN2C(=O)c2cccc(F)c2)cn1 (stereo not shown) [CBK284970]	102
Cn1cc(C2CCCCCN2C(=O)c2nn(C)cc2Cl)cn1 (stereo not shown) [CBK284972]	93.2
Cc1noc(C)c1C(=O)N1CCCCCC1c1cnn(C)c1 (stereo not shown) [CBK284974]	98.8
O=C(c1n[nH]c2c1CCCC2)N1CCc2ncc(Cl)cc2C1 [CBK284975]	93.4
O=C1CC(C(=O)N2CCc3ncc(Cl)cc3C2)c2ccccc2N1 (stereo not shown) [CBK284976]	94.4
CCn1nc(C)c(CN2CCCC(c3cc4cccnc4[nH]3)C2)c1C (stereo not shown) [CBK284977]	107
Cc1cc2ccnc(Cl)c2n1CC1(O)CC2CCC(C1)N2 (stereo not shown) [CBK284980]	95
Cc1nccn1CC1(O)CCN(CC2=CCC3CC2C3(C)C)CC1 (stereo not shown) [CBK284981]	94.6
CC1CCN(C(=O)CCn2c(C(F)F)cc3cccnc32)CC1 [CBK284982]	85.6
O=C(CCn1c(C(F)F)cc2cccnc21)N1CCCCCC1 [CBK284983]	96.9
O=C(CCn1c(C(F)F)cc2cccnc21)N1CCCC(CO)C1 (stereo not shown) [CBK284985]	99.5
Cn1nc(C2CCN(C(=O)Cc3ccsc3)CC2)c2cccnc21 [CBK284986]	101
Cc1ccc(C(=O)N2CCC(c3nn(C)c4ncccc34)CC2)s1 [CBK284988]	86.1
O=C(c1c(F)cccc1F)N1CCC(c2cc3cccnc3[nH]2)CC1 [CBK284997]	91.5
Cc1cc(C)n(CC(=O)N2CCC(c3cc4cccnc4[nH]3)CC2)n1 [CBK284999]	91.3
O=C(c1ccc(F)cc1)N1CCC(c2cc3cccnc3[nH]2)CC1 [CBK285001]	96.8
O=C(Cn1c(C2CCNCC2)cc2cccnc21)NC1CCCC1 [CBK285002]	104
COCC(=O)NC(Cc1cccs1)c1nc(C)cs1 (stereo not shown) [CBK285004]	87.3
Cc1csc(C(Cc2cccs2)NC(=O)C2CCOCC2)n1 (stereo not shown) [CBK285006]	89.2
CC(=O)N1C[C@@H](N(C)C)[C@H](c2cn(C)c3ccccc23)C1 [CBK285007]	99.5
CC(C)N(C(=O)Cn1c(C(F)F)cc2cccnc21)C(C)C [CBK285009]	100

SMILES	viability at 28.5 h, 10 µM [%]
COCC(C)NC(=O)Cn1c(C(F)F)cc2cccnc21 (stereo not shown) [CBK285010]	105
O=C(Cn1cccc2cc(C3CCCNC3)nc1-2)NC1CCCC1 (stereo not shown) [CBK285015]	95.5
Cc1n[nH]c(C)c1CC(=O)N1CCCC(c2cc3ccccc3cn2)C1 (stereo not shown) [CBK285018]	103
Cc1csc(C(Cc2ccsc2)NCc2cccnc2)n1 (stereo not shown) [CBK285020]	96.6
CC(=O)N1Cc2cc(C)ccc2OC2(CCN(CC3CC3)CC2)C1 [CBK285021]	95
CC1CCCN(C(=O)CCn2c(C(F)F)cc3cccnc32)C1 (stereo not shown) [CBK285025]	97.9
CCN1CCN(C(=O)CCn2c(C(F)F)cc3cccnc32)CC1 [CBK285026]	112
CC(=O)NC(c1ccccn1)C1CCCN(C(=O)C(C)C)C1 (stereo not shown) [CBK285030]	111
O=C1NCCCC12CCN(Cc1cccc3ncccc13)CC2 [CBK285033]	101
O=C(Cc1ccccc1F)N1CCC(c2cc3cccnc3[nH]2)CC1 [CBK285035]	104
CC(CC(=O)N1CCC(c2cc3cccnc3[nH]2)CC1)n1cccn1 (stereo not shown) [CBK285036]	100
CC(=O)N1Cc2ccccc2OC2(CCN(C(=O)C3CC3)CC2)C1 [CBK285037]	104
CC(C)(C)OC(=O)N1CCC(c2nc3ccccc3cc2N)CC1 [CBK285038]	82.6
CC(=O)NC(c1ccccn1)C1CCCN(C(=O)C2CC2)C1 (stereo not shown) [CBK285040]	100
Cn1cc(CN2CCCC(c3cc4ccccc4cn3)C2)cn1 (stereo not shown) [CBK285042]	101
Cc1csc(C(Cc2ccsc2)NC(=O)C2CCOCC2)n1 (stereo not shown) [CBK285047]	102
Cc1ccc2c(c1)C(=O)NCC1(CCN(Cc3ccccc3)CC1)O2 [CBK285048]	104
CC(=O)NC(c1ccccn1)C1CCN(C(=O)C2CCCCC2)CC1 (stereo not shown) [CBK285049]	98
Cn1nc(C2CCN(C(=O)CCc3ccccc3)CC2)c2cccnc21 [CBK285050]	103
Cc1c(C(=O)NC(Cc2cccs2)c2nccs2)cnn1C (stereo not shown) [CBK285053]	97.1
Cn1nccc1C(=O)NC(Cc1cccs1)c1nccs1 (stereo not shown) [CBK285055]	102
c1cnc2[nH]c(C3CCNCC3)c(CN3CCCCCC3)c2c1 [CBK285057]	102
O=C(Cn1c(C2CCCNC2)cc2cccnc21)N1CCCC1 (stereo not shown) [CBK285060]	94.4

SMILES	viability at 28.5 h, 10 µM [%]
CN(C)CC(=O)NC(Cc1cccs1)c1nccs1 (stereo not shown) [CBK285061]	91.1
O=C(c1n[nH]cc1Cl)N1CCCC(c2cc3ccccc3cn2)C1 (stereo not shown) [CBK285062]	88
O=C(CCn1c(C(F)F)cc2cccnc21)NC1CCCC1 [CBK285063]	95.5
O=C(CCn1c(C(F)F)cc2cccnc21)NC1CCCCC1 [CBK285064]	92.1
COc1ccccc1NC(=O)CCn1c(C(F)F)cc2cccnc21 [CBK285065]	99.2
O=C(CCn1c(C(F)F)cc2cccnc21)NCc1ccc(F)cc1 [CBK285067]	102
O=C(CCn1c(C(F)F)cc2cccnc21)NCc1ccccn1 [CBK285068]	100
CN(Cc1ccncc1)C(=O)CCn1c(C(F)F)cc2cccnc21 [CBK285070]	81
CN(C)CC1COc2ccccc2CN1C(=O)Cc1ccccc1F (stereo not shown) [CBK285080]	89.5
CCC(C)NC(=O)Cn1c(C2CCCNC2)cc2cccnc21 (stereo not shown) [CBK285085]	109
O=C(Cn1cccc2cc(C3CCCNC3)nc1-2)N1CCCC1 (stereo not shown) [CBK285086]	88.7
O=C1CCCN1CC(=O)N1CCCC(c2cc3ccccc3cn2)C1 (stereo not shown) [CBK285091]	99.7
O=C(Cn1ccnc1)NC(Cc1cccs1)c1nccs1 (stereo not shown) [CBK285092]	93.2
Cc1n[nH]c(C)c1CC(=O)NC(Cc1cccs1)c1nccs1 (stereo not shown) [CBK285093]	92.1
O=C(CCCn1ccnc1)NC(Cc1cccs1)c1nccs1 (stereo not shown) [CBK285094]	90.1
Cn1cc(Cl)c(C2CCCCCN2C(=O)c2ccco2)n1 (stereo not shown) [CBK285105]	96.5
Cc1csc(C(Cc2ccsc2)NC(=O)c2ccnn2C)n1 (stereo not shown) [CBK285107]	104
Cc1csc(C(Cc2ccsc2)NC(=O)c2ccc(=O)[nH]c2)n1 (stereo not shown) [CBK285109]	95.2
O=C(NC(Cc1ccsc1)c1cccnc1)C1CCOCC1 (stereo not shown) [CBK285110]	92.9
Cn1cccc1CN1CCCC(n2c(=O)oc3ccccc32)C1 (stereo not shown) [CBK285111]	103
CO[C@H]1CC[C@H](C(=O)NC(Cc2ccsc2)c2cccnc2)CC1 (stereo partly shown) [CBK285114]	107
